{"source": "patent US20090306403A1", "about": "“Production Process for Bicyclic Tetrahydropyrrole Compounds” (priority 2006, published 2009)", "origin": "cited, not measured here", "key": {"sigma 1 (σ-1) site": {"target": "sigma 1 (σ-1) site (Homo sapiens, UniProt Q99720)", "sequence (Q99720 whole entry)": "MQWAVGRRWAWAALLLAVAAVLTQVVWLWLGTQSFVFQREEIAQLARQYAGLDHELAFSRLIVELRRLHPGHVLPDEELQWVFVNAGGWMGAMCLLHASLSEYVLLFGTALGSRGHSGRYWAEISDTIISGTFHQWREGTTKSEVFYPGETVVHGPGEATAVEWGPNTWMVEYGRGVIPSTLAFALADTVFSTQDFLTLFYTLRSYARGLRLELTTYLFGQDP", "settings": "background statement in words"}, "sigma (σ-2) site": {"target": "sigma (σ-2) site (Homo sapiens, UniProt Q5BJF2)", "sequence (Q5BJF2 whole entry)": "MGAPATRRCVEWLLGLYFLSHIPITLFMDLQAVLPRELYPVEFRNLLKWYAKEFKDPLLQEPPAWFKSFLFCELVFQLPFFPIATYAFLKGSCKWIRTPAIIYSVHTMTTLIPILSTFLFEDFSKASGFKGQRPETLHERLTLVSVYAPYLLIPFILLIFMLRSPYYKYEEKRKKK", "settings": "background statement in words"}}, "data": [{"substance": "SKF 10047", "values": [{"measurement": "affinity for the sigma 1 (σ-1) site", "setting": "sigma 1 (σ-1) site", "value": "nanomolar affinity"}, {"measurement": "affinity for the sigma (σ-2) site", "setting": "sigma (σ-2) site", "value": "micromolar affinity"}]}]}
